Consider 21 molecules from PMC4594013 (Frontiers in Pharmacology, 2015).

Data set [1] has as its target T1, OAT2-tv1 (Homo sapiens, UniProt Q9Y694).
T1 sequence (Q9Y694 1-546 isoform Q9Y694-2): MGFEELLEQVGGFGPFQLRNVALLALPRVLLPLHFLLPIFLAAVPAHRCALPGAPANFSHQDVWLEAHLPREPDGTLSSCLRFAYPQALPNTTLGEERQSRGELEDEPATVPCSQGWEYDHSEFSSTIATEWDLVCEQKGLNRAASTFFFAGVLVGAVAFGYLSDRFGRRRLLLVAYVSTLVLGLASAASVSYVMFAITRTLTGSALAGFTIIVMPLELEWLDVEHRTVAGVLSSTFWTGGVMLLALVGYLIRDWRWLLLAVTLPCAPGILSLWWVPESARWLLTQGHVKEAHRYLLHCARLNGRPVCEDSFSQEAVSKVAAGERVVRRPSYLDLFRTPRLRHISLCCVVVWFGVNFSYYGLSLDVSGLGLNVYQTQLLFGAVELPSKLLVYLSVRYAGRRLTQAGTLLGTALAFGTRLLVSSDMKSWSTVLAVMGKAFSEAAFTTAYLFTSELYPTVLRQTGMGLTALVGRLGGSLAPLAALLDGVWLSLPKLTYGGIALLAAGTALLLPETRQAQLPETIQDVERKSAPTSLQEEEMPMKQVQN
Description: Inhibition of [3H]penciclovir uptake into CHO-OAT2-tv1 cells. Format: cell-based. To be noted: 5 min; for % Inhibition: inhibition of [3H]penciclovir uptake by CHO-OAT2-tv1 cells at the maximum concentration of test compound (Table 2, c1); for % Inhibition / IC50: room temperature; for cis-inhibition of penciclovir uptake: CHO-OAT2-tv1 cells, test compound 1 mM, [3H]penciclovir ∼30 nM. The method, then:
(§1) All experiments examining cellular radiolabeled compound uptake were conducted using cells grown to confluence in 24-well flat bottom plates. The transport solution consisted of WB (room temperature) containing radiolabeled compound and the uptake period for all experiments was at an initial rate time point of 5 min. [^3H]Penciclovir served as the probe OAT2 substrate. We also examined the uptake of [^3H]para-aminohippurate, [^3H]estrone-3-sulfate, [^14C]glutarate, [^14C]succinate, [^3H]paclitaxel, and [^3H]dehydroepiandrosterone sulfate by OAT2 since published studies indicate that they are substrates of the transport protein ([Sun et al., 2001]; [Kobayashi et al., 2005a]). […] For all cellular uptake experiments, the medium was aspirated and the cells were rinsed once with WB (0.3 ml). Following the uptake period, cells were washed three times with ice-cold WB (0.5 ml each wash). After aspirating the final wash the cells were lysed in 0.5 N NaOH/1% SDS (0.4 ml) for ∼30 min on an orbital shaker. 1 N HCl (0.2 ml) was then added to neutralize the NaOH, and the cell lysates (0.5 ml) were transferred to scintillation vials containing liquid scintillation cocktail (CytoScint ES, MP Biomedicals). Cellular radioactivity content was determined with a Beckman LS6500 liquid scintillation counter. Protein content was determined using the bicinchoninic acid method. See the Figure and Table Legends for additional details describing the experimental conditions used.
The concentration of each Kreb’s cycle intermediate was 1 mM. Uptake was conducted for 5 min.

In data set [2] the test system is OAT2 with an unidentified sequence. As to conditions: cited from earlier work.
Another data set has as its target T2, OAT2-tv2 (Homo sapiens, UniProt Q9Y694).
T2 sequence (Q9Y694 1-548): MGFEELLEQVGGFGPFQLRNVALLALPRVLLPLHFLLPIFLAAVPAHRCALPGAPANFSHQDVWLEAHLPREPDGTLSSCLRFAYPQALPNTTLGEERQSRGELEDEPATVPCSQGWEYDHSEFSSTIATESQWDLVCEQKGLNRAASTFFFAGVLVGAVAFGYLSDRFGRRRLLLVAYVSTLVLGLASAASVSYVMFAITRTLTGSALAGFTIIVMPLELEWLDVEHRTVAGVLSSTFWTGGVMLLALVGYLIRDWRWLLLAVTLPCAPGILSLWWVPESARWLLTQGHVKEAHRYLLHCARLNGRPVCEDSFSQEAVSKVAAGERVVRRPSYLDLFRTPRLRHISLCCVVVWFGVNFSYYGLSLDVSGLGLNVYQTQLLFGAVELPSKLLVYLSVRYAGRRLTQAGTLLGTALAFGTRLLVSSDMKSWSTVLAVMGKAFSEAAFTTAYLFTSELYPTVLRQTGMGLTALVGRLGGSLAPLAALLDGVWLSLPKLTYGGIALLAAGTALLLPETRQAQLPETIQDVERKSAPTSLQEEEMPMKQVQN
Description: Cellular uptake of radiolabeled compounds by CHO, HEK or MDCK cells stably expressing OAT2-tv2. Type of data set: cell-based. On the set-up: The open reading frame of the human ortholog of OAT2 transcript variant 2 (OAT2-tv2) containing 548 amino acids was amplified from a construct obtained from Origene; host or cells: CHO, HEK and MDCK Flp-In cells. As to conditions: HEK- and MDCK-OAT2-tv2 cells, penciclovir 0.1/0.5 μM, para-aminohippurate 8 nM, estrone-3-sulfate 10 nM, glutarate 18 μM, 5 min. The method, then:
[^3H]Penciclovir served as the probe OAT2 substrate. […] Protein content was determined using the bicinchoninic acid method.
Uptake was conducted for 5 min at room temperature.

For data set [3], the target named is T1, OAT2-tv1. Description: Cellular uptake of radiolabeled compounds by CHO, HEK or MDCK cells stably expressing OAT2-tv1. As to conditions: for uptake compared to respective parental cells: CHO-, HEK- and MDCK-OAT2-tv1 cells, para-aminohippurate 8 nM, estrone-3-sulfate 10 nM, glutarate 18 μM. The method, then: as §1
FIGURE 2 Cellular accumulation of [^3H]penciclovir (A), [^3H]para-aminohippurate (B), [^3H]estrone-3-sulfate (C), or [^14C]glutarate (D) by parental CHO, HEK, or MDCK cells, or CHO, HEK, or MDCK cells stably expressing either OAT2-tv1 or OAT2-tv2. The concentration of [^3H]penciclovir in the transport solution was 0.1 μM for CHO and MDCK cell experiments, and 0.5 μM for HEK cell experiments. The concentrations of [^3H]para-aminohippurate, [^3H]estrone-3-sulfate and [^14C]glutarate were 8 nM, 10 nM, and 18 μM, respectively. Uptake was conducted for 5 min at room temperature.
FIGURE 4 Cellular accumulation of [^14C]succinate (18.5 μM) by CHO parental cells, CHO-OAT2-tv1 cells or CHO cells stably expressing the Na-dicarboxylate cotransporter 3 (NaDC3). Uptake was conducted for 5 min. Values are the mean ± standard error of the mean of four experiments for CHO parental and CHO-OAT2-tv1 cells. A single uptake experiment was performed with CHO-NaDC3 cells.

Data set [4] concerns the target T1, OAT2-tv1. To be noted: cited from earlier work; for substrate of OAT2-tv1: ref Cheng et al., 2012.
Another data set has as its system CHO parental cells. The experiment in a line: Cellular accumulation of radiolabeled compounds in CHO parental cells. Type of data set: cell-based, Chinese hamster. As to conditions: [3H]dehydroepiandrosterone sulfate 12 nM, [3H]paclitaxel 22 nM, n = 3.
Where [5] appears, read: inhibition of [3H]penciclovir uptake by CHO-OAT2-tv1 cells, read-out: IC50.

“And” between values parts separate entries of the source, which are not always exact repeats. Equal values may be shown once. Where a name gives a salt, the structure may show the parent alone. Read-outs that look alike come from different tables or passages of the source.

Usually % Inhibition stands for the relative decrease from the control value, in per cent. Read a high % Inhibition as strong suppression. By IC50 is commonly meant the point on the concentration scale where inhibition reaches its midpoint. Take `NS(=O)(=O)c1cc(C(=O)O)c(NCc2ccco2)cc1Cl` [Furosemide]: the “% Inhibition” value at OAT2-tv1 [1] stood at 90%. In addition, the IC50 in data set [2] (ref Hasannejad et al., 2004) was 603 µM.
Regarding `O=C(O)CCCC(=O)O` [glutarate], the “uptake compared to respective parental cells” value at OAT2-tv2 and at OAT2-tv1 [3] (5 min) was “not different than uptake into the respective parental cells” throughout.
For `CN/C(=N/CCSCc1nc[nH]c1C)NC#N` [Cimetidine], at OAT2-tv1 [1], the “% Inhibition” value is 95%. Also, the IC50 at OAT2-tv1 [1] (setting [5]) is 57 µM and 57.2 µM. In addition, the “inhibition of OAT2” value in data set [2] (ref Khamdang et al., 2004) is on record as “no inhibition”.
Regarding `Nc1nc(O)c2ncn(COC(CO)CO)c2n1` [ganciclovir], at OAT2-tv1 [4], the “substrate of OAT2-tv1” value is on record as “clearly substrates of OAT2-tv1”.
Consider `Nc1ccc(C(=O)NCC(=O)O)cc1` [para-aminohippurate], for which, on OAT2-tv1 [4] (ref Cropp et al., 2008), the “uptake by HEK-OAT2-tv1 cells” value was “failed to observe appreciable uptake”. Besides, at OAT2-tv1 [1], the “% Inhibition” value amounted to 99%. In addition, on OAT2-tv1 [1] (setting [5]), the IC50 came out at 210 µM. The “uptake compared to respective parental cells” value on OAT2-tv2 and on OAT2-tv1 [3] (5 min) was “not different than uptake into the respective parental cells” in each case.
For `CCCCC[C@H](O)/C=C/[C@H]1[C@H](O)CC(=O)[C@@H]1C/C=C\CCCC(=O)O` [Prostaglandin E2], the “% Inhibition” value on OAT2-tv1 [1] is reported as 96%. Also, the IC50 on OAT2-tv1 [1] (setting [5]) was found to be 26.8 ± 2.4 µM.
On to `O=C(O)C[C@@H](O)C(=O)O` [D-malate], for which the “cis-inhibition of penciclovir uptake” value at OAT2-tv1 [1] was “none of the Kreb’s cycle intermediates tested, including succinate and fumarate, cis-inhibited penciclovir uptake”.
For `C[C@]12CC[C@@H]3c4ccc(OS(=O)(=O)O)cc4CC[C@H]3[C@@H]1CCC2=O` [Estrone Sulfate], at OAT2-tv1 [1], the “% Inhibition” value stood at 95%. The IC50 at OAT2-tv1 [1] (setting [5]) was 36.1 ± 3.9 µM. Besides, the “uptake compared to respective parental cells” value on OAT2-tv2 and on OAT2-tv1 [3] (5 min) was “not different than uptake into the respective parental cells” in each case.
With `CCCc1nc2c(C)cc(-c3nc4ccccc4n3C)cc2n1Cc1ccc(-c2ccccc2C(=O)O)cc1` [Telmisartan], on OAT2-tv1 [1], the “% Inhibition” value was 96%. The IC50 on OAT2-tv1 [1] (setting [5]) was 17.1 ± 1.3 µM.
The like results for `CCCCC(=O)N(Cc1ccc(-c2ccccc2-c2nnn[nH]2)cc1)[C@H](C(=O)O)C(C)C` [Valsartan] were, in that order, 86% and 127 ± 29 µM.
Regarding `CC(=O)O[C@H]1C(=O)[C@@]2(C)[C@H]([C@H](OC(=O)c3ccccc3)[C@]3(O)C[C@H](OC(=O)[C@H](O)[C@@H](NC(=O)c4ccccc4)c4ccccc4)C(C)=C1C3(C)C)[C@]1(OC(C)=O)CO[C@@H]1C[C@@H]2O` [paclitaxel], the cellular accumulation is 89 ± 3.8 fmoles ⋅ mg protein^-1 ⋅ min^-1 in the data set on CHO parental cells and 90 ± 5.1 fmoles ⋅ mg protein^-1 ⋅ min^-1 at OAT2-tv1 [3] (5 min, 22 nM). In addition, the “mediated transport by OAT2-tv1” value at OAT2-tv1 [3] (expressed in CHO cells) is “unable to show mediated transport”.
For the molecule `CC[C@H]1OC(=O)[C@H](C)[C@@H](O[C@H]2C[C@@](C)(OC)[C@@H](O)[C@H](C)O2)[C@H](C)[C@@H](O[C@@H]2O[C@H](C)C[C@H](N(C)C)[C@H]2O)[C@](C)(O)C[C@@H](C)C(=O)[C@H](C)[C@@H](O)[C@]1(C)O` [Erythromycin], the “% Inhibition” value on OAT2-tv1 [1] was found to be 65%. Further, the IC50 on OAT2-tv1 [1] (setting [5]) stood at 12 ± 5.4 µM.
For `Nc1nc2c(ncn2CCC(CO)CO)c(=O)[nH]1` [Penciclovir], the “substrate of OAT2-tv1” value at OAT2-tv1 [4] was “clearly substrates of OAT2-tv1”. In addition, at OAT2-tv1 [1], the “% Inhibition” value is 85%. The IC50 on OAT2-tv1 [1] (setting [5]) amounted to 78.4 ± 8.2 µM. The “uptake compared to respective parental cells” value on OAT2-tv2 was “not different from uptake into the respective parental cells”. For the same molecule, the “uptake of penciclovir, fold higher compared to parental cells” value at OAT2-tv1 [3] (CHO-OAT2-tv1 cells, [3H]penciclovir 0.1 μM, 5 min) came out at 21 fold; on OAT2-tv1 [3] (HEK-OAT2-tv1 cells, [3H]penciclovir 0.5 μM, 5 min), 39 fold; at OAT2-tv1 [3] (MDCK-OAT2-tv1 cells, [3H]penciclovir 0.1 μM, 5 min) it was 5 fold.
For `COc1ccc2c(c1)c(CC(=O)O)c(C)n2C(=O)c1ccc(Cl)cc1` [Indomethacin], the “% Inhibition” value at OAT2-tv1 [1] turned out to be 99%. In addition, in data set [2] (ref Khamdang et al., 2002), the IC50 is 64.1 µM.
As to `Nc1ccn(C[C@@H](CO)OCP(=O)(O)O)c(=O)n1` [Cidofovir], on OAT2-tv1 [1], the “% Inhibition” value turned out to be 53%.
On to `O=C(O)CC(=O)C(=O)O` [oxaloacetate], for which the “cis-inhibition of penciclovir uptake” value at OAT2-tv1 [1] is “none of the Kreb’s cycle intermediates tested, including succinate and fumarate, cis-inhibited penciclovir uptake”.
As to `CN(Cc1cnc2nc(N)nc(N)c2n1)c1ccc(C(=O)N[C@@H](CCC(=O)O)C(=O)O)cc1` [Methotrexate], the “% Inhibition” value on OAT2-tv1 [1] is reported as 76%.
For the molecule `CCCCC[N+](CCCCC)(CCCCC)CCCCC` [Tetrapentylammonium], the IC50 against OAT2-tv1 [1] (IC50, inhibition of [3H]penciclovir uptake by CHO-OAT2-tv1 cells) was 279 ± 142 µM. Further, the “% Inhibition” value at OAT2-tv1 [1] turned out to be 49%.
With `CCCN(CCC)S(=O)(=O)c1ccc(C(=O)O)cc1` [Probenecid], the “% Inhibition” value at OAT2-tv1 [1] amounted to 64%.
Take `CCOc1cc(CC(=O)N[C@@H](CC(C)C)c2ccccc2N2CCCCC2)ccc1C(=O)O` [Repaglinide]: the “% Inhibition” value on OAT2-tv1 [1] was found to be 99%. Also, the IC50 at OAT2-tv1 [1] (setting [5]) was 30 ± 3.6 µM.
Regarding `CC[N+](CC)(CC)CC` [Tetraethylammonium], the “% Inhibition” value at OAT2-tv1 [1] amounted to 42%. In addition, the IC50 at OAT2-tv1 [1] (setting [5]) stood at 54.3 ± 33 µM.
